Common to all, as to type: cell-based
Experiment [1] deals with Staphylococcus aureus (209-P). The experiment can be described thus: Antibacterial activity (IC), agar as in Example 8 (Example 15, Table 48). The following applies: 18 h. How it is done:
(§1) The antibacterial action was evaluated by the inhibitory concentration (hereinafter abbreviated as IC) at which propagation of the bacteria cultured at 37°C for 18 hours was inhibited. Inhibition was determined by the turbidity of the medium. The expressions "IC≤100", "≤10", and "≤1" indicate that MIC-equivalent values obtained at the succesive […] dilution of the sample are 100-10 µg/ml, 10-1 µg/ml, and not more than 1 µg/ml, respectively. […] (In the subsequent Examples, the same rule applies correspondingly.) Table 39
(§2) A suitable amount of a sample was dissolved in dimethylsulfoxide (DMSO), after which the resulting solution was diluted with the same amount of sterilized distilled water to prepare a bulk sample of 1,000 µg/ml. Separately, a bacterial liquid for the test (methicillin-resistant Staphylococcus aureus (MRSA) isolated from humans) which had been cultured in Mueller-Hinton broth (product of DIFCO) was prepared and inoculated to a Mueller-Hinton agar (product of DIFCO) containing the sample so that the final inoculation amount of 10^6 CFU/ml was achieved. The final concentrations of the samples were 100, 10, and 1 µg/ml.
(§3) After culturing at 37°C for 18 hours, the antibacterial activity was evaluated in terms of IC in a manner similar to that described in Example 4.
The bacterium used for the test was Staphylococcus aureus (209-P).

Experiment [2] concerns Streptococcus aureus (TI-1). The experiment can be described thus: Antibacterial activity (IC), agar as in Example 8 (Example 16, Table 49). The following applies: 18 h. How it is done: as §1, §2, §3
In a manner similar to that described in Example 8, antibacterial activity of the invention compound was determined. The bacterium used for the test was […] aureus (TI-1).

The subject of experiment [3] is Pasteurella multocida (Kobe-6). Put plainly: Antibacterial activity (IC), agar as in Example 8 (Example 17, Table 50). The following applies: 18 h, origin pig. The protocol: as §1, §2, §3
In a manner similar to that described in Example 8, antibacterial activity of the invention compound was determined. The bacterium used for the test was Pasteurella Kobe-6 (origin: pig, Pasteurella multocida).

In the next experiment the test system is Pasteurella from fish. Put plainly: Antibacterial activity (IC), agar as in Example 8, media with 1.5% NaCl, 25°C (Example 20, Tables 53-55). The following applies: for MIC: Pasteurella piscicida KP94-02. How it is done:
as §1, §2, §3
(§4) In a manner similar to that described in Example 8, antibacterial activity of a variety of ketonitrile derivatives shown in Tables 53-55 was measured. The bacteria used for the test were Enterococcus and Pasteurella from fish. The culture conditions were such that the media contained 1.5% NaCl, and the culture temperature was 25°C.

Another experiment relates to Enterococcus from fish. The experiment is described as above. The following applies: for MIC: Enterococcus Seriolicida SE94-002. The protocol: as §1, §2, §3, §4
Experiment [4] concerns methicillin-resistant Staphylococcus aureus (MRSA) from humans. The experiment can be described thus: Antibacterial activity (IC), agar as in Example 8 (Example 19, Table 52). The following applies: 18 h. How it is done:
as §1, §2, §3
In a manner similar to that described in Example 8, antibacterial activity of a variety of ketonitrile derivatives shown in Table 52 was measured. The bacterium used for the test was methicillin-resistant Staphylococcus aureus (MRSA) from humans.

Setting [5] is: Enterococcus Seriolicida KG86050.
The mark [6] stands for this setting: Enterococcus Seriolicida MS89060.
[7] abbreviates: Enterococcus Seriolicida MS89064.
Setting [8] is: Enterococcus Seriolicida MS89066.
The mark [9] stands for this setting: Enterococcus Seriolicida MS89068.
Where [10] appears, read: Enterococcus Seriolicida SE94-001.
Setting [11] is: Enterococcus Seriolicida SE94-003.
[12] abbreviates: Enterococcus Seriolicida SE94-004.
The mark [13] stands for this setting: Enterococcus Seriolicida SE94-005.

Converted amounts (≈) assume the structure as drawn. Some results are limits rather than exact numbers.

What is called MIC is the least concentration at which growth counts as inhibited.

Turning to `CC(Oc1cccc(Oc2ccc(C(F)(F)F)cc2Cl)c1)C(=O)C(C#N)c1ccc(Cl)cc1Cl` (stereo not drawn) [Compound No. 108, 4-[3-(2-chloro-4-trifluoromethyl-phenoxy)phenoxy)-2-(2,4-dichlorophenyl)-3-oxopentanonitrile], the minimal inhibitory concentration (MIC) in experiment [1] lay in the range of 1 to 10 µg/mL (≈ 1.89 to 18.9 µM); in experiment [2] it was 1 to 10 µg/mL (≈ 1.89 to 18.9 µM); in experiment [3] it was 10 to 100 µg/mL (≈ 18.9 to 189 µM); against Pasteurella from fish it was 10 to 100 µg/mL (≈ 18.9 to 189 µM); in the experiment with Enterococcus from fish, 1 to 10 µg/mL (≈ 1.89 to 18.9 µM). Further, the IC is given as ≤100 (MIC-equivalent values obtained at the succesive 2-fold dilution of the sample are 100-10 µg/ml) in the experiment with Pasteurella from fish (Pasteurella piscicida KP94-04); ≤100 (MIC-equivalent values obtained at the succesive 2-fold dilution of the sample are 100-10 µg/ml) in the experiment on Pasteurella from fish (Pasteurella piscicida KP94-05); ≤100 (MIC-equivalent values obtained at the succesive 2-fold dilution of the sample are 100-10 µg/ml) in the experiment with Pasteurella from fish (Pasteurella piscicida KP94-06); ≤10 (10-1 µg/ml) with Enterococcus from fish (Enterococcus Seriolicida HI); ≤10 (10-1 µg/ml) in the experiment with Enterococcus from fish (setting [5]); ≤10 (10-1 µg/ml) in the experiment with Enterococcus from fish (setting [6]). Also, the IC in the experiment with Enterococcus from fish (setting [7]), in the experiment with Enterococcus from fish (setting [8]), in the experiment on Enterococcus from fish (setting [9]), with Enterococcus from fish (setting [10]), with Enterococcus from fish (setting [11]) and with Enterococcus from fish (setting [12]) was ≤10 (10-1 µg/ml) throughout. Also, in the experiment with Enterococcus from fish (setting [13]), the IC is on record as ≤10 (10-1 µg/ml).

With `CC(Oc1cccc(Oc2ccc(C(F)(F)F)cc2Cl)c1)C(=O)C(C#N)c1cccc(Br)c1` (stereo not drawn) [Compound No. 104, 2-(3-bromophenyl)-4-[3-(2-chloro-4-trifluoromethylphenoxy)phenoxy]-3-oxopentanonitrile], the MIC in experiment [1] is at most 1 µg/mL; in experiment [2], at most 1 µg/mL; in experiment [3], 1 to 10 µg/mL (≈ 1.86 to 18.6 µM); in experiment [4] (MRSA strain 891179), 1 to 10 µg/mL (≈ 1.86 to 18.6 µM); in experiment [4] (MRSA strain 891185) it was 1 to 10 µg/mL (≈ 1.86 to 18.6 µM); in experiment [4] (MRSA strain 891187), 1 to 10 µg/mL (≈ 1.86 to 18.6 µM). Further, the minimal inhibitory concentration (MIC) in experiment [4] (MRSA strain 891192), in experiment [4] (MRSA strain 900048) and in experiment [4] (MRSA strain 900056) was 1 to 10 µg/mL (≈ 1.86 to 18.6 µM) in each case.

For `CC(Oc1cc(Oc2ccc(C(F)(F)F)cc2Cl)ccc1[N+](=O)[O-])C(=O)C(C#N)C(=O)N1CCOCC1` (stereo not drawn) [compound 137], the minimum inhibitory concentration (MIC) in experiment [1], in experiment [2] and in experiment [3] was 10 to 100 µg/mL (≈ 18.5 to 185 µM) in each case.

For the molecule `CC(Oc1cc(Oc2ccc(C(F)(F)F)cc2Cl)ccc1[N+](=O)[O-])C(=O)C(C#N)C(=O)N1CCCCC1` (stereo not drawn) [compound 135], the MIC (in experiment [3]; with Pasteurella from fish; in the experiment on Enterococcus from fish) was 10 to 100 µg/mL (≈ 18.5 to 185 µM) in each case. Further, the IC in the experiment on Enterococcus from fish (Enterococcus Seriolicida HI), in the experiment with Enterococcus from fish (setting [5]), in the experiment on Enterococcus from fish (setting [6]), in the experiment with Enterococcus from fish (setting [7]), in the experiment with Enterococcus from fish (setting [8]) and in the experiment on Enterococcus from fish (setting [9]) was ≤100 (MIC-equivalent values obtained at the succesive 2-fold dilution of the sample are 100-10 µg/ml) each time. Further, the IC with Enterococcus from fish (setting [10]), with Enterococcus from fish (setting [11]), with Enterococcus from fish (setting [12]) and with Enterococcus from fish (setting [13]) was ≤100 (MIC-equivalent values obtained at the succesive 2-fold dilution of the sample are 100-10 µg/ml) each time.

`CC(Oc1cc(Oc2ccc(C(F)(F)F)cc2Cl)ccc1[N+](=O)[O-])C(=O)C(C#N)C(=O)N1CCCC1` (stereo not drawn) [compound 134]: the MIC (in experiment [1]; in experiment [2]; in experiment [3]; with Pasteurella from fish; in the experiment with Enterococcus from fish) was 10 to 100 µg/mL (≈ 19 to 190 µM) in each case. The IC in the experiment with Enterococcus from fish (Enterococcus Seriolicida HI), in the experiment on Enterococcus from fish (setting [5]), in the experiment on Enterococcus from fish (setting [6]), in the experiment with Enterococcus from fish (setting [7]), in the experiment on Enterococcus from fish (setting [8]) and in the experiment on Enterococcus from fish (setting [9]) was ≤100 (MIC-equivalent values obtained at the succesive 2-fold dilution of the sample are 100-10 µg/ml) in each case. In addition, the IC with Enterococcus from fish (setting [10]), with Enterococcus from fish (setting [11]), in the experiment with Enterococcus from fish (setting [12]) and in the experiment with Enterococcus from fish (setting [13]) was ≤100 (MIC-equivalent values obtained at the succesive 2-fold dilution of the sample are 100-10 µg/ml) in each case.

Regarding `CC(Oc1cc(Oc2ccc(C(F)(F)F)cc2Cl)ccc1[N+](=O)[O-])C(=O)C(C#N)c1ccc(Cl)cc1Cl` (stereo not drawn) [Compound No. 116, 4-[5-(2-chloro-4-trifluoromethylphenoxy)-2-nitrophenoxy]-2-(2,4-dichlorophenyl)-3-oxopentanonitrile], the MIC in experiment [1] was in the range of 1 to 10 µg/mL (≈ 1.74 to 17.4 µM); in experiment [2], 1 to 10 µg/mL (≈ 1.74 to 17.4 µM); in experiment [3] it was 1 to 10 µg/mL (≈ 1.74 to 17.4 µM); with Pasteurella from fish, 10 to 100 µg/mL (≈ 17.4 to 174 µM); against Enterococcus from fish it was 1 to 10 µg/mL (≈ 1.74 to 17.4 µM). Further, the IC in the experiment on Pasteurella from fish (Pasteurella piscicida KP94-04) is listed as ≤100 (MIC-equivalent values obtained at the succesive 2-fold dilution of the sample are 100-10 µg/ml); in the experiment on Pasteurella from fish (Pasteurella piscicida KP94-05), ≤100 (MIC-equivalent values obtained at the succesive 2-fold dilution of the sample are 100-10 µg/ml); with Pasteurella from fish (Pasteurella piscicida KP94-06) it was ≤100 (MIC-equivalent values obtained at the succesive 2-fold dilution of the sample are 100-10 µg/ml); in the experiment with Enterococcus from fish (Enterococcus Seriolicida HI), ≤10 (10-1 µg/ml); in the experiment on Enterococcus from fish (setting [5]), ≤10 (10-1 µg/ml); with Enterococcus from fish (setting [6]) it was ≤10 (10-1 µg/ml). In addition, the IC in the experiment with Enterococcus from fish (setting [7]), in the experiment on Enterococcus from fish (setting [8]), in the experiment with Enterococcus from fish (setting [9]), in the experiment with Enterococcus from fish (setting [10]), in the experiment on Enterococcus from fish (setting [11]) and in the experiment on Enterococcus from fish (setting [12]) was ≤10 (10-1 µg/ml) each time. Besides, the IC with Enterococcus from fish (setting [13]) is reported as ≤10 (10-1 µg/ml).

With `CC(Oc1cc(Oc2ccc(C(F)(F)F)cc2Cl)ccc1Cl)C(=O)C(C#N)c1ccc(Cl)c(Cl)c1` (stereo not drawn) [compound 152], the minimum inhibitory concentration (MIC) in experiment [1] is at most 1 µg/mL; in experiment [2] it was at most 1 µg/mL; in experiment [3] it was 1 to 10 µg/mL (≈ 1.78 to 17.8 µM).

Regarding `CC(Oc1cc(Oc2ccc(C(F)(F)F)cc2Cl)ccc1Cl)C(=O)C(C#N)c1ccc(Cl)cc1Cl` (stereo not drawn) [compound 151], the minimal inhibitory concentration (MIC) is at most 1 µg/mL in experiment [1], at most 1 µg/mL in experiment [2] and 10 to 100 µg/mL (≈ 17.8 to 178 µM) in experiment [3].

Regarding `CC(Oc1cc(Oc2ccc(C(F)(F)F)cc2Cl)ccc1Cl)C(=O)C(C#N)c1ccccc1` (stereo not drawn) [compound 156], the MIC in experiment [1] lay in the range of 1 to 10 µg/mL (≈ 2.02 to 20.2 µM); in experiment [3], 10 to 100 µg/mL (≈ 20.2 to 202 µM).

Turning to `CC(Oc1cc(Oc2ccc(C(F)(F)F)cc2Cl)ccc1Cl)C(=O)C(C#N)C(=O)N1CCCCC1` (stereo not drawn) [compound 170], the minimum inhibitory concentration (MIC) in experiment [1] was in the range of 1 to 10 µg/mL (≈ 1.89 to 18.9 µM); in experiment [2], 1 to 10 µg/mL (≈ 1.89 to 18.9 µM); in experiment [3] it was 10 to 100 µg/mL (≈ 18.9 to 189 µM).
